From patent US11142527B2, “Dihydropyrimidine compounds and uses thereof in medicine” (SUNSHINE LAKE PHARMA CO., LTD., priority 2017, dated 2021)

Columns and labels:
HBV = test: Test of anti HBV activity in vitro (viral DNA by qPCR); assay type: cell-based; conditions: Hepatitis B virus; HepG2.2.15 cells, viral DNA in cell culture supernatant by qPCR; read-out: EC50 values of the compound of the invention on viral replication
Method in brief: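 HepG2.2.15 cells (integrated HBV genome) were grown to confluence, then treated with compound in 4-fold dilutions from 4 μM final (0.5% DMSO). Secreted viral DNA in supernatant was quantified by SYBR qPCR against an HBV plasmid standard curve; EC50 from four-parameter nonlinear regression of concentration versus copy number.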

[1] = Cytotoxicity test with CellTiter Glo; assay type: cell-based; conditions: human, HepG2.2.15 cells, highest concentration 150 μM, read-out: CC50 values of the compounds of the invention
Procedure: Test 2: Cytotoxicity and Selectivity Index
Methods of Testing Cytotoxicity and Selectivity Index
The serial diluted compound was added to a 384 wells plate at 50 μL HepG2.2.15 cell per well (3000 cells per well), the highest final concentration in the experiment is 150 μM (200 fold dilution). The plate was cultured at 37° C. in an incubator with CO2 for 4 days, and cytotoxicity of the compound was detected using CellTiter Glo agent.
The cytotoxicity of the compound was calculated using the following formulate, cytotoxicity (%)=100−(detection value/mean of DMSO control wells values×100) CC50 values were calculated by a four parametric nonlinear regression model using Graphpad Prism 5 software to manage concentration−cytotoxicity (%).

| SMILES | EC50 (HBV) | CC50 at 4 days [1] |
| --- | --- | --- |
| COC(=O)C1=C(CN2CCN3C(=O)N(c4ccc(N5CCC(C(=O)O)CC5)cc4F)C[C@@H]3C2)NC(c2nccs2)=N[C@H]1c1ccc(F)cc1Cl [Example 31, 1-(4-((S)-7-(((R)-6-(2-chloro-4-fluorophenyl)-5-(methoxycarbonyl)-2-(thiazol-2-yl)-3,6-dihydropyrimidin-4-yl)methyl)-3-oxohexahydroimidazo[1,5-a]pyrazin-2(3H)-yl)-3-fluorophenyl)piperidine-4-carboxylic acid] | 16 nM | > 150000 nM |
| COC(=O)C1=C(CN2CCN3C(=O)N(c4cc(F)cc(N5CCC(C(=O)O)CC5)c4)C[C@@H]3C2)NC(c2nccs2)=N[C@H]1c1ccc(F)cc1Cl [Example 32, 1-(3-((S)-7-(((R)-6-(2-chloro-4-fluorophenyl)-5-(methoxycarbonyl)-2-(thiazol-2-yl)-3,6-dihydropyrimidin-4-yl)methyl)-3-oxohexahydroimidazo[1,5-a]pyrazin-2(3H)-yl)-5-fluorophenyl)piperidine-4-carboxylic acid] | 6 nM | > 150000 nM |
| COC(=O)C1=C(CN2CCN3C(=O)N(c4ccc(-c5ccc(C(=O)O)cc5F)c(F)c4)C[C@@H]3C2)NC(c2nccs2)=N[C@H]1c1ccc(F)cc1Cl [Example 33, 4′-((S)-7-(((R)-6-(2-chloro-4-fluorophenyl)-5-(methoxycarbonyl)-2-(thiazol-2-yl)-3,6-dihydropyrimidin-4-yl)methyl)-3-oxohexahydroimidazo[1,5-a]pyrazin-2(3H)-yl)-2,2′-difluoro-[1,1′-diphenyl]-4-carboxylic acid] | 7 nM | > 150000 nM |
| COC(=O)C1=C(CN2CCN3C(=O)N(c4ccc(-c5ccc(C(=O)O)c(F)c5)c(F)c4)C[C@@H]3C2)NC(c2nccs2)=N[C@H]1c1ccc(F)cc1Cl [Example 34, 4′-((S)-7-(((R)-6-(2-chloro-4-fluorophenyl)-5-(methoxycarbonyl)-2-(thiazol-2-yl)-3,6-dihydropyrimidin-4-yl)methyl)-3-oxohexahydroimidazo[1,5-a]pyrazin-2(3H)-yl)-2′,3-difluoro-[1,1′-diphenyl]-4-carboxylic acid] | 7 nM | > 150000 nM |
| COC(=O)C1=C(CN2CCN3C(=O)N(c4ccc(-c5ccc(C(=O)O)cc5)c(F)c4)C[C@@H]3C2)NC(c2nccs2)=N[C@H]1c1ccc(F)cc1Cl [Example 35, 4′-((S)-7-(((R)-6-(2-chloro-4-fluorophenyl)-5-(methoxycarbonyl)-2-(thiazol-2-yl)-3,6-dihydropyrimidin-4-yl)methyl)-3-oxohexahydroimidazo[1,5-a]pyrazin-2(3H)-yl)-2′-fluoro-[1,1′-diphenyl]-4-carboxylic acid] | 7 nM | > 150000 nM |
| COC(=O)C1=C(CN2CCN3C(=O)N(c4nc(-c5ccc(CC(C)(C)C(=O)O)cc5)cs4)C[C@@H]3C2)NC(c2nccs2)=N[C@H]1c1ccc(F)cc1Cl [Example 36, 3-(4-(2-((S)-7-(((R)-6-(2-chloro-4-fluorophenyl)-5-(methoxycarbonyl)-2-(thiazol-2-yl)-3,6-dihydropyrimidin-4-yl)methyl)-3-oxohexahydroimidazo[1,5-a]pyrazin-2(3H)-yl)thiazol-4-yl)phenyl)-2,2-dimethylprop ionic acid] | 22 nM | > 150000 nM |
| COC(=O)C1=C(CN2CCN3C(=O)N(CC#Cc4ccc(CO)cc4)C[C@@H]3C2)NC(c2nccs2)=N[C@H]1c1ccc(F)cc1Cl [Example 37, (R)-methyl 4-(2-chloro-4-fluorophenyl)-6-(((S)-2-(3-(4-(hydroxymethyl)phenyl)prop-2-yn-1-yl)-3-oxohexahydroimidazo[1,5-a]pyrazin-7(1H)-yl)methyl)-2-(thiazol-2-yl)-1,4-dihydropyrimidine-5-carboxylate] | 12.1 nM | > 150000 nM |
| COC(=O)C1=C(CN2CCN3C(=O)N(CC#Cc4ccc(C(C)(C)O)cc4)C[C@@H]3C2)NC(c2nccs2)=N[C@H]1c1ccc(F)cc1Cl [Example 38, (R)-methyl 4-(2-chloro-4-fluorophenyl)-6-(((S)-2-(3-(4-(2-hydroxyprop-2-yl)phenyl)-2-propyn-1-yl)-3-oxohexahydroimidazo[1,5-a]pyrazin-7(1H)-yl)methyl)-2-(thiazol-2-yl)-1,4-dihydropyrimidine-5-carboxylate] | 7.1 nM | > 150000 nM |
| COC(=O)C1=C(CN2CCN3C(=O)N(CC#Cc4ccc(S(C)(=O)=O)cc4)C[C@@H]3C2)NC(c2nccs2)=N[C@H]1c1ccc(F)cc1Cl [Example 41, (R)-methyl 4-(2-chloro-4-fluorophenyl)-6-(((S)-2-(3-(4-(methylsulfonyl)phenyl)-2-propyn-1-yl)-3-oxohexahydroimidazo[1,5-a]pyrazin-7(1H)-yl)methyl)-2-(thiazol-2-yl)-1,4-dihydropyrimidine-5-carboxylate] | 5.1 nM | > 150000 nM |
| COC(=O)C1=C(CN2CCN3C(=O)N(CC#Cc4ccc(C(=O)N(C)C)cc4)C[C@@H]3C2)NC(c2nccs2)=N[C@H]1c1ccc(F)cc1Cl [Example 42, (R)-methyl 4-(2-chloro-4-fluorophenyl)-6-(((S)-2-(3-(4-(dimethylcarbamoyl)phenyl)prop-2-yn-1-yl)-3-oxohexahydroimidazo[1,5-a]pyrazin-7(1H)-yl)methyl)-2-(thiazol-2-yl)-1,4-dihydropyrimidine-5-carboxylate] | 8 nM | > 150000 nM |
| COC(=O)C1=C(CN2CCN3C(=O)N(CC#Cc4ccc(S(=O)(=O)N(C)C)cc4)C[C@@H]3C2)NC(c2nccs2)=N[C@H]1c1ccc(F)cc1Cl [Example 43, (R)-methyl 4-(2-chloro-4-fluorophenyl)-6-(((S)-2-(3-(4-(N,N-dimethylaminosulfonyl)phenyl)prop-2-yn-1-yl)-3-oxohexahydroimidazo[1,5-a]pyrazin-7(1H)-yl)methyl)-2-(thiazol-2-yl)-1,4-dihydropyrimidine-5-carboxylate] | 7.2 nM | > 150000 nM |
| COC(=O)C1=C(CN2CCN3C(=O)N(CC#Cc4ccc(C#N)cc4)C[C@@H]3C2)NC(c2nccs2)=N[C@H]1c1ccc(F)cc1Cl [Example 44, (R)-methyl 4-(2-chloro-4-fluorophenyl)-6-(((S)-2-(3-(4-cyanophenyl)prop-2-yn-1-yl)-3-oxohexahydroimidazo[1,5-a]pyrazin-7(1H)-yl)methyl)-2-(thiazol-2-yl)-1,4-dihydropyrimidine-5-carboxylate] | 3.6 nM | > 150000 nM |
| COC(=O)C1=C(CN2CCN3C(=O)N(CC#Cc4c(C)cc(C#N)cc4C)C[C@@H]3C2)NC(c2nccs2)=N[C@H]1c1ccc(F)cc1Cl [Example 48, (R)-methyl 4-(2-chloro-4-fluorophenyl)-6-(((S)-2-(3-(4-cyano-2,6-dimethylphenyl)-2-propynyl)-3-oxohexahydroimidazo[1,5-a]pyrazin-7(1H)-yl)methyl)-2-me (thiazol-2-yl)-1,4-dihydropyrimidine-5-carboxylate] | 6.3 nM | > 150000 nM |
| COC(=O)C1=C(CN2CCN3C(=O)N(CCC#Cc4ccc(C(=O)O)cc4)C[C@@H]3C2)NC(c2nccs2)=N[C@H]1c1ccc(F)cc1Cl [Example 54, 4-(4-((S)-7-(((R)-6-(2-chloro-4-fluorophenyl)-5-(methoxycarbonyl)-2-(thiazol-2-yl)-3,6-dihydropyrimidin-4-yl)methyl)-3-oxohexahydroimidazo[1,5-a]pyrazin-2(3H)-yl)but-1-yn-1-yl)benzoic acid] | 61.3 nM | > 150000 nM |
| COC(=O)C1=C(CN2CCN3C(=O)N(c4ccc(Oc5ccc(C(=O)N6CCOCC6)cc5)cc4)C[C@@H]3C2)NC(c2nccs2)=N[C@H]1c1ccc(F)cc1Cl [Example 56, (R)-methyl 4-(2-chloro-4-fluorophenyl)-6-(((S)-2-(4-(4-(morpholine-4-carbonyl)phenoxy)phenyl)-3-oxohexahydroimidazo[1,5-a]pyrazin-7(1H)-yl)methyl)-2-(thiazol-2-yl)-1,4-dihydropyrimidine-5-carboxylate] | 12.4 nM | > 150000 nM |
| COC(=O)C1=C(CN2CCN3C(=O)N(c4ccc(Oc5ccc(C(=O)N6CCCC6(F)F)cc5)cc4)C[C@@H]3C2)NC(c2nccs2)=N[C@H]1c1ccc(F)cc1Cl [Example 57, (R)-methyl 4-(2-chloro-4-fluorophenyl)-6-(((S)-2-(4-(4-(2,2-difluoropyrrolidine-1-carbonyl)phenoxy)phenyl)-3-oxohexahydroimidazo[1,5-a]pyrazin-7(1H)-yl)methyl)-2-(thiazol-2-yl)-1,4-dihydropyrimidine-5-carboxylate] | 28.1 nM | > 150000 nM |
| COC(=O)C1=C(CN2CCN3C(=O)N(c4ccc(Oc5ccc(C(=O)N6CCC(CO)CC6)cc5)cc4)C[C@@H]3C2)NC(c2nccs2)=N[C@H]1c1ccc(F)cc1Cl [Example 60, (R)-methyl 4-(2-chloro-4-fluorophenyl)-6-(((S)-2-(4-(4-(4-(hydroxymethyl)piperidine-1-carbonyl)phenoxy)phenyl)-3-oxohexahydroimidazo[1,5-a]pyrazin-7(1H)-yl)methyl)-2-(thiazol-2-yl)-1,4-dihydropyrimidine-5-carboxylate] | 32.3 nM | > 150000 nM |
